Experimental findings from patent publication US20220009920A1 (GB005, Inc., priority 2020, published 2022) are described below.

Common to all, as to test: Large panel kinase profiling
Format in all cases: biochemical
What all share (details): 1 μM test article, 1 mM ATP

One experiment has as its target CAMK2A (Homo sapiens, UniProt Q9UQM7). A digest of the protocol:
(§1)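 CSox-Sensor fluorescence readout; test article 1 μM, ATP 1 mM, 30° C.; kinetic reads at 1-min intervals, Ex 360/Em 485 nm.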

A further experiment addresses T1, CAMK4 (Homo sapiens, UniProt Q16566).
T1 construct: AssayQuant Technologies, Inc. (ran the panel)
T1 sequence (Q16566 1-473): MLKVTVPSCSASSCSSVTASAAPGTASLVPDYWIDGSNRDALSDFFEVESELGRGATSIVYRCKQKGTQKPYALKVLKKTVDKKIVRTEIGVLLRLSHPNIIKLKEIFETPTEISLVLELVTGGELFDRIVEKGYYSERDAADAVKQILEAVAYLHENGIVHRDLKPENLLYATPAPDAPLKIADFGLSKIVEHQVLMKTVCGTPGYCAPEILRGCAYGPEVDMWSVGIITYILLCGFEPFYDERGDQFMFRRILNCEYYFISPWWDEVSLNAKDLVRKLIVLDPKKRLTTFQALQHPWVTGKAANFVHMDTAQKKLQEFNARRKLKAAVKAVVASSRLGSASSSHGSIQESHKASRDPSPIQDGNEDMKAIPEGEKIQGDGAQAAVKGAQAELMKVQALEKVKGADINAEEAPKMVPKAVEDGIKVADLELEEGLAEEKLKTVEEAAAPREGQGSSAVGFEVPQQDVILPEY
The essentials: as §1

The target of the next experiment is T2, CDK2/E1 (Homo sapiens, UniProt P24941).
T2 construct: AssayQuant Technologies, Inc. (ran the panel)
A digest of the protocol:
as §1

The next experiment has as its target T3, CDK3/E1 (Homo sapiens, UniProt Q00526).
T3 construct: AssayQuant Technologies, Inc. (ran the panel)
The essentials: as §1

The next experiment has as its target T4, CRIK/CIT (Homo sapiens, UniProt O14578).
T4 construct: AssayQuant Technologies, Inc. (ran the panel)
The essentials:
as §1

For a further experiment, the target named is T5, CSF1R/FMS (Homo sapiens, UniProt P07333).
T5 construct: AssayQuant Technologies, Inc. (service laboratory)
T5 sequence (P07333 20-972): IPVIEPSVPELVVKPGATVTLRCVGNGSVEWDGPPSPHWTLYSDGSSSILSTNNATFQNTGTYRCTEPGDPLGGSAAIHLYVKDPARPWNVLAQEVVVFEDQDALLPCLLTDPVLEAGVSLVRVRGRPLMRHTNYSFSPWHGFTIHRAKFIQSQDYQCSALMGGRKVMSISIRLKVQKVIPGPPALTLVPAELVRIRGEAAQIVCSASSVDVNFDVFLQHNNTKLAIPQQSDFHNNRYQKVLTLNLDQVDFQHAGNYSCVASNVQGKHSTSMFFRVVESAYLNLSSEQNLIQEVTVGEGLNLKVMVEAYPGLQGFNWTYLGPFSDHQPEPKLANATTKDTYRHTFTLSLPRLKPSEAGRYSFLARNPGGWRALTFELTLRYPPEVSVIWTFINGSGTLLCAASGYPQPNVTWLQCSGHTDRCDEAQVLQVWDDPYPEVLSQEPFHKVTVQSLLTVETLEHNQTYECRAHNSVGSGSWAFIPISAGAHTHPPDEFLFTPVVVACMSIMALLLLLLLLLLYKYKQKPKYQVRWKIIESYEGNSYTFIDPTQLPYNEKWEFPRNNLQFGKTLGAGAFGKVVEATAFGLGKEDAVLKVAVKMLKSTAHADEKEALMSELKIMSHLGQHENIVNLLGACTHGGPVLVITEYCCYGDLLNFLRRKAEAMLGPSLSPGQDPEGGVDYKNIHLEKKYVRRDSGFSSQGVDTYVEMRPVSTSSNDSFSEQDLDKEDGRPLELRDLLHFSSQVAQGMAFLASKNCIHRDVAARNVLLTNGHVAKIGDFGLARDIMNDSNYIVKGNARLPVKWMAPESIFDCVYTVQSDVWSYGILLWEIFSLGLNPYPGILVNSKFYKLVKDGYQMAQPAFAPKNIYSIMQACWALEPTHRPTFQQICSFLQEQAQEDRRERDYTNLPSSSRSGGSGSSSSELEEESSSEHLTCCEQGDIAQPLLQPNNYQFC
A digest of the protocol: as §1

The next experiment concerns the target T6, EIF2AK1/HRI (Homo sapiens, UniProt Q9BQI3).
T6 construct: AssayQuant Technologies, Inc. (service laboratory)
A digest of the protocol:
as §1

The target of another experiment is T7, MAPK8/JNK1 (Homo sapiens, UniProt P45983).
T7 construct: AssayQuant Technologies, Inc. (service provider)
T7 sequence (P45983 whole entry): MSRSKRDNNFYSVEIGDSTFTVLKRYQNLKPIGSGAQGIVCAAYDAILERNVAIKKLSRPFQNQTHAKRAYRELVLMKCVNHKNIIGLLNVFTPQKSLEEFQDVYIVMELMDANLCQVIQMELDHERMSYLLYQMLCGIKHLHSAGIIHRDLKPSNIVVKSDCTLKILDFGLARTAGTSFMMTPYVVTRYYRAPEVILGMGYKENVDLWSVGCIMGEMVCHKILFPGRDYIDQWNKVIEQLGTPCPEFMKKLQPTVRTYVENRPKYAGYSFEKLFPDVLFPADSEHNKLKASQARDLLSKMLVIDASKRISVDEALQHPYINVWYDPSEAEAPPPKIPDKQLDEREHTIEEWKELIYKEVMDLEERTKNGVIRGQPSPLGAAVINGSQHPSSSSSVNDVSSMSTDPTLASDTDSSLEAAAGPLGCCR
The essentials:
as §1

Another experiment has as its target PRKCB1/PKCB1 (Homo sapiens, UniProt P05771). The essentials:
as §1

The target of the next experiment is PRKCH/PKCH (Homo sapiens, UniProt P24723). A digest of the protocol: as §1
For a further experiment, the target named is T8, PRKD2 (Homo sapiens, UniProt Q9BZL6).
T8 sequence (Q9BZL6 1-878): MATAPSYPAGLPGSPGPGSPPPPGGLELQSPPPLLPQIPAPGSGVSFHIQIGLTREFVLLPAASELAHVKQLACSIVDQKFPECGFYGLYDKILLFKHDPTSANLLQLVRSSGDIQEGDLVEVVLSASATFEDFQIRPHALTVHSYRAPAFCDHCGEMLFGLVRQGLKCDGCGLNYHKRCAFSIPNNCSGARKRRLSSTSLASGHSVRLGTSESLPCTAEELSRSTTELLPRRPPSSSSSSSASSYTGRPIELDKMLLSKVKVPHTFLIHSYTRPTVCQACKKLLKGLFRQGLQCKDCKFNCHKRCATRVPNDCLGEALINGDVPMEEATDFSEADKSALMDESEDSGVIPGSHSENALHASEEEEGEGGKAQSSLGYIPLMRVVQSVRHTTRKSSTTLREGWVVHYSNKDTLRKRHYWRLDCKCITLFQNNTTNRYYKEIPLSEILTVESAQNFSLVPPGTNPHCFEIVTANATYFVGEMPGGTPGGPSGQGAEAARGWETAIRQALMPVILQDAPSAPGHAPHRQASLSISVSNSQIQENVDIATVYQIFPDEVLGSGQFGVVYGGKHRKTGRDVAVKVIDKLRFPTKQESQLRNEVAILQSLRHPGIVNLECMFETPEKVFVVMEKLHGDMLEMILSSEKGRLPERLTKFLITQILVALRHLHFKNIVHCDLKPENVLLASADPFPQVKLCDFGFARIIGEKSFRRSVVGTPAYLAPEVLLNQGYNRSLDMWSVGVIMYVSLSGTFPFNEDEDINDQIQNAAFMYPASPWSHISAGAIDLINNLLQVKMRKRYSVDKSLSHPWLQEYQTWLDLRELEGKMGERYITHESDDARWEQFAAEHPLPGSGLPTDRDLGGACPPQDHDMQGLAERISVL
A digest of the protocol: as §1

A further experiment addresses T9, SK3 (Homo sapiens, UniProt Q9Y2K2).
T9 construct: AssayQuant Technologies, Inc. (contract assay)
A digest of the protocol:
as §1

Another experiment deals with T10, TSSK1 (Homo sapiens, UniProt Q9BXA7).
T10 construct: AssayQuant Technologies, Inc. (contract laboratory that ran the panel)
T10 sequence (Q9BXA7 1-367): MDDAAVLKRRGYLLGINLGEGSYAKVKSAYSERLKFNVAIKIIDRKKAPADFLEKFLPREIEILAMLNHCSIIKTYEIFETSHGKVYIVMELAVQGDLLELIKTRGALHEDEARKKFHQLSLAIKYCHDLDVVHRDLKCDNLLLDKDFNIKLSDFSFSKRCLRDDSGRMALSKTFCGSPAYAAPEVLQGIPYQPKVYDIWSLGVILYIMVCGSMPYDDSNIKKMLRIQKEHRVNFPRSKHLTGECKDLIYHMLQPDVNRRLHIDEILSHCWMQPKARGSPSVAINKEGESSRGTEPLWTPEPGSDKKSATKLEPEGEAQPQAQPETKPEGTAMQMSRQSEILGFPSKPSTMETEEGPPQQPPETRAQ
A digest of the protocol:
as §1

T4 sequence (O14578 whole entry): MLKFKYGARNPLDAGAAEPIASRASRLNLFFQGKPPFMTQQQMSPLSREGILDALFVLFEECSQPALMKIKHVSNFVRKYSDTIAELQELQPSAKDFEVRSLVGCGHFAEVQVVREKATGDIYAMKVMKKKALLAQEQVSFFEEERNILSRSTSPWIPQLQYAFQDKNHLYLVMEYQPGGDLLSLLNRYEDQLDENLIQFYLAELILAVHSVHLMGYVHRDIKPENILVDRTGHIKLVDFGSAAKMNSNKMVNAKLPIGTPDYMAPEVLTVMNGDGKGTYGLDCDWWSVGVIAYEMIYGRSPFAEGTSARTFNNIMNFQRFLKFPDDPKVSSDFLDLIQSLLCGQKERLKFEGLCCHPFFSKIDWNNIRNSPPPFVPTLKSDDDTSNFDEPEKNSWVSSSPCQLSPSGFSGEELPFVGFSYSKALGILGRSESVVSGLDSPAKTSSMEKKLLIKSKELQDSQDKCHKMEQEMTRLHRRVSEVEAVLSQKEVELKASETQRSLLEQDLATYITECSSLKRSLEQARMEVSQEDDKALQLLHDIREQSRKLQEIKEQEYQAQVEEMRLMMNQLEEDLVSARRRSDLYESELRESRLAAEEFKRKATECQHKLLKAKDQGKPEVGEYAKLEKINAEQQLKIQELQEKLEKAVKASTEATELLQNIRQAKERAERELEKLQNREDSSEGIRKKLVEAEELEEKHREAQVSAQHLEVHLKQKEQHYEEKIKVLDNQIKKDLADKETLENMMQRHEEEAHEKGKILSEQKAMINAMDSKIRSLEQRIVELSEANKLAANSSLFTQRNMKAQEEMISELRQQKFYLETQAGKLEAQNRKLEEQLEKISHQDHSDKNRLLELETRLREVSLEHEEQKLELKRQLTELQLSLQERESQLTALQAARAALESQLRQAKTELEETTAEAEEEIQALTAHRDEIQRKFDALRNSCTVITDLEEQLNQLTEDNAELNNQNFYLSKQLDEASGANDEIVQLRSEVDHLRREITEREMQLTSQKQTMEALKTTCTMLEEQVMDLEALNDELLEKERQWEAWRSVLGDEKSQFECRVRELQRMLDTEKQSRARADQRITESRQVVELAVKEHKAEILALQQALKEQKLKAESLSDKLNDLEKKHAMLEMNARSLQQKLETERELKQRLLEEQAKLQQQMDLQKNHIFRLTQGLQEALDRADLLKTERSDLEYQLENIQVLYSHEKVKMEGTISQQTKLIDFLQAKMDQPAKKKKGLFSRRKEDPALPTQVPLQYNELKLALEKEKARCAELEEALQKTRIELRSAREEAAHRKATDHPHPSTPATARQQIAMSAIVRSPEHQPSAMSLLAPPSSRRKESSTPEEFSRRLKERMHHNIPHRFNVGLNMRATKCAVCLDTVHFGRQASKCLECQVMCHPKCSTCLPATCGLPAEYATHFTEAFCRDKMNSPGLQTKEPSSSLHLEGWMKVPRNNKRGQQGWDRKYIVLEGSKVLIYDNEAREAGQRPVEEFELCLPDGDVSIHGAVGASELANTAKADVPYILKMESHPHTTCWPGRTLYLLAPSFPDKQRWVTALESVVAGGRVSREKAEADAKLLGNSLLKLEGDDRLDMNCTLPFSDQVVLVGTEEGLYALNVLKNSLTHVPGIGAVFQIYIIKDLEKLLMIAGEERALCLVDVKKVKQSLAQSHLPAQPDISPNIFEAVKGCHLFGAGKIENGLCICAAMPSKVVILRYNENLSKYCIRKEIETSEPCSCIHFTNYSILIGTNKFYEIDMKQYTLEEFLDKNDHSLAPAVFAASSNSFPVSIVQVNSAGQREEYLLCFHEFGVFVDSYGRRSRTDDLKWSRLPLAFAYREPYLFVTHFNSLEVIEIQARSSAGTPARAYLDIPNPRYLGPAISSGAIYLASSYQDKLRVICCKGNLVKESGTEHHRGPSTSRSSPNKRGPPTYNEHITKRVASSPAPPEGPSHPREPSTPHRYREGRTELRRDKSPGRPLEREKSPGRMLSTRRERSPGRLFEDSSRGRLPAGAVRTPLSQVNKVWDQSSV
T6 sequence (Q9BQI3 whole entry): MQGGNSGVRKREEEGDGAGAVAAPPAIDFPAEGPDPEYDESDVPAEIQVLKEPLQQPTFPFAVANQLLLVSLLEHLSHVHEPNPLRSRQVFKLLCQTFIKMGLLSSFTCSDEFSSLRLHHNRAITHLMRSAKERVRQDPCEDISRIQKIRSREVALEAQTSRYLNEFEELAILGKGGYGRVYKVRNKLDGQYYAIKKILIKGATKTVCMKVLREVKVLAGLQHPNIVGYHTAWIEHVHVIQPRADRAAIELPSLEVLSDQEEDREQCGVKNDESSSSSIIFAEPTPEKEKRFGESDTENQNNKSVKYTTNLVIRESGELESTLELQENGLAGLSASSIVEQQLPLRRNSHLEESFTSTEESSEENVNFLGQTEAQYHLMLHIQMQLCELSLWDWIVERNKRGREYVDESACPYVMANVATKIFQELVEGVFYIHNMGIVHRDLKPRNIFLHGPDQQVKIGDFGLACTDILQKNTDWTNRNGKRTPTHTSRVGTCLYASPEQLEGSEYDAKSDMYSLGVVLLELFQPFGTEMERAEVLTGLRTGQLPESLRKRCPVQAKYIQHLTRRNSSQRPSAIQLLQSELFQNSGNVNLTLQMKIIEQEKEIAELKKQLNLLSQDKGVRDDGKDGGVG
Sequence of PRKCB1/PKCB1 (P05771 whole entry): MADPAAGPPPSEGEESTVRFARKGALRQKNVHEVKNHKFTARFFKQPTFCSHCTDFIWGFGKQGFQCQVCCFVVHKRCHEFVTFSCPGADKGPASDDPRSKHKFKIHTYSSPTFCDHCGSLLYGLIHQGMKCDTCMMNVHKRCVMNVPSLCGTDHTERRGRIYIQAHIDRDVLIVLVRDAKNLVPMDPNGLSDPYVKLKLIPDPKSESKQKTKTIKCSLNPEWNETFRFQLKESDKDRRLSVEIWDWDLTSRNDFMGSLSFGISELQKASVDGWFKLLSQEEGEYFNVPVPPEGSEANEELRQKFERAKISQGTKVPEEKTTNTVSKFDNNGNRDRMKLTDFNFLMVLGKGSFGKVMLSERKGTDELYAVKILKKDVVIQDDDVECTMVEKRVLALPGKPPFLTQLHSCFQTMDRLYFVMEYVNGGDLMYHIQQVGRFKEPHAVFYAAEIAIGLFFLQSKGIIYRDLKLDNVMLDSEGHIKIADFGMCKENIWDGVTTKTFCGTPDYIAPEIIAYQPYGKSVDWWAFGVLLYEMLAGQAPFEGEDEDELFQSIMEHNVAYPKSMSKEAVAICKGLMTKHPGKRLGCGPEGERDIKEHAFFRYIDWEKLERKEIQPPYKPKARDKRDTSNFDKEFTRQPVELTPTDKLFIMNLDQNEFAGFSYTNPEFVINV

One may read the inhibition as the change of the read-out against control, counted positive when it falls. For `C=CC(=O)N1CCCC(c2c(F)cc(C(N)=O)c3[nH]c4c(c23)CCCCC4)C1` (single isomer, unassigned) [Compound 5-6], the inhibition at 1 µM was 4.9% against CAMK2A; 15.7% against CAMK4; -7.3% on CDK2/E1; -15.3% against CDK3/E1; -9.9% at CRIK/CIT; 21.3% on CSF1R/FMS. In addition, the inhibition at 1 µM at EIF2AK1/HRI was -6.1%; against MAPK8/JNK1, -0.6%; against PRKCB1/PKCB1 it was 8.6%; at PRKCH/PKCH, -3.6%; at PRKD2 it was -14.2%; at SK3 it was 5.3%. Also, the inhibition at 1 µM at TSSK1 amounted to 7.3%.

Regarding `C=CC(=O)N1CCC[C@@H](c2c(F)cc(C(N)=O)c3[nH]c4c(c23)CC2(CC4)CC2)C1` [Compound 6-2, (S)-5-(1-acryloylpiperidin-3-yl)-6-fluoro-1,2,4,9-tetrahydrospiro[carbazole-3,1′-cyclopropane]-8-carboxamide], the inhibition at 1 µM is 35.8% against CAMK2A; 26.6% against CAMK4; -12.9% at CDK2/E1; 13.7% against CDK3/E1; 9.1% at CRIK/CIT; 24.9% against CSF1R/FMS. Further, the inhibition at 1 µM against EIF2AK1/HRI was -34.9%; at MAPK8/JNK1 it was 21.7%; on PRKCB1/PKCB1 it was 8.9%; at PRKCH/PKCH, 5.3%; at PRKD2, -32.9%; against SK3, 14.7%. The inhibition at 1 µM against TSSK1 is -3%.

Turning to `C=CC(=O)N1CCC[C@@H](c2c(F)cc(C(N)=O)c3[nH]c4c(c23)CCC4)C1` [Compound 10-2, (S)-8-(1-acryloylpiperidin-3-yl)-7-fluoro-1,2,3,4-tetrahydrocyclo-penta[b]indole-5-carboxamide], the inhibition at 1 µM against CAMK2A was 14.7%; at CAMK4, 15.3%; at CDK2/E1 it was 7%; on CDK3/E1 it was -7.7%; against CRIK/CIT it was 11.1%; at CSF1R/FMS, 20.2%. The inhibition at 1 µM against EIF2AK1/HRI is -89.5%; at MAPK8/JNK1, 13.6%; at PRKCB1/PKCB1, -9.4%; against PRKCH/PKCH it was -7.9%; on PRKD2, -12.1%; against SK3, 11.6%. Besides, the inhibition at 1 µM against TSSK1 amounted to 14%.
